Test results taken from patent US20120196918A1, “PREVENTING ISLET INFLAMMATION AND DYSFUNCTION AND MAINTAINING PROPER GLUCOSE LEVELS BY CONTROLLING eIF5A AND ITS HYPUSINATION” (priority 2009, published 2012).

Assays:
[1] = tested on: STZ-treated C57BL/6J mice; test: Multiple low-dose streptozotocin (STZ) diabetes model in C57BL/6J mice; assay type: in vivo, mouse
Experimental: To test the role of eIF5A in cytokine-mediated islet dysfunction, efforts were made to identify a mouse model of islet inflammation. The multiple low dose streptozotocin (STZ) model, in which mice are subjected to five daily intraperitoneal doses (at 55 mg/kg body weight) of STZ, is considered to provoke local islet inflammation and cytokine release, in part through the recruitment of CD11c+ dendritic cells that release pro-inflammatory cytokines in the area of STZ-induced cellular destruction (27 and 28).
C57BL/6J mice were injected intraperitoneally with either stabilized siRNA against eIF5A (si-eIF5A) or control siRNA (si-Control) daily for three days, then subjected to the multiple low-dose STZ protocol (see schematic in FIG. 1a). […] The effect of administering si-eIF5A on islet viability following STZ treatment was determined by performing immunohistochemical analysis of the pancreata of mice. […] To quantify the differences in islet mass between STZ-treated and untreated animals, morphometry of insulin-stained pancreatic sections was performed.
Based on the observed data, if hypusination of eIF5A by DHS is required for cytokine responsiveness in islets, then inhibition of DHS in vivo should protect against low dose STZ diabetes. To test this, C57BL/6J mice were treated with GC7 or vehicle and then subjected to low dose STZ injections. GC7 was delivered in one of two different ways: either by daily bolus intraperitoneal injections (4 mg/kg/day) or by continuous subcutaneous delivery (40 μg/kg/h) using implanted osmotic pumps. A protocol similar to that shown in FIG. 1A was employed in these studies, with GC7 injections or pump implants starting 3 days prior to STZ injections.
Small interfering RNA (siRNA) studies: Stabilized siRNAs for intraperitoneal injections were custom synthesized by Dharmacon using the siSTABLE® modification. Groups of 10 week-old C57BL/6J male mice (from Jackson Labs) received daily intraperitoneal injections of 1.6 mg/kg siRNA prepared in 0.9% saline or vehicle alone (0.9% saline) for 3 days. For in vitro studies, islets from each group of injected mice were harvested on the fourth day and pooled prior to analysis. Injections with each siRNA were performed on at least 3 different occasions. siRNA sequences were as follows: siControl, 5′-[…]-3′; si-eIF5A, 5′-[…]-3′. For siRNA studies in the rat β cell-derived line INS-1 (832/13), cells were transfected with a SMART Pool® siRNA against rat eIF5A1 (Dharmacon, #L-083855-01) or non-targeting control siRNA #1 (Dharmacon) using DharmaFECT® transfection reagent (Dharmacon).
Immunostaining and morphometric assessment of β cell mass: Immunostaining of pancreatic sections proceeded as described previously (72). For assessment of islet cell death in pancreatic sections, the technique of terminal deoxynucleotidyl transferase dUTP nick end labeling (TUNEL) was performed using biotinylated 16-dUTP (Roche) and Texas Red Neutravidin (Invitrogen). Digital images of each islet at 40× magnification were acquired using an Axio-Observer D1 microscope (Zeiss) inverted fluorescent microscope equipped with a high-resolution color camera. TUNEL-positive/insulin-positive nuclei were counted manually by an observer blinded to sample identity, and data were re-coded as the average number of TUNEL-positive nuclei per islet. β cell mass was calculated as described previously (73), but with some modifications. Briefly, pancreata from 3 mice per treatment group were rapidly dissected and weighed, fixed in 4% paraformaldehyde, paraffin-embedded, and longitudinally sectioned. Three sections/pancreas (approx. 75 μm apart) were subsequently immunostained for insulin and counterstained with hematoxylin as described (74), and digital images of each section at 10× magnification were acquired on an Axio-Observer Z1 microscope (Zeiss) fitted with an AxioCam high resolution color camera. […]

iNOS = test: Nitrite release into INS-1 cell medium (Griess reagent); assay type: cell-based, rat; settings: increasing GC7 concentrations, cytokines 4 h; greatest inhibition at 125 μM
From the text: eIF5A1 and eIF5A2 are the only proteins known to contain the unique amino acid hypusine at position 50. Hypusine is formed as a posttranslational modification of residue Lys50 in a reaction requiring spermidine and catalyzed by the sequential actions of the enzymes deoxyhypusine synthase (DHS) and deoxyhypusine hydroxylase (DOHH) (Chen, K Y, and Liu, A Y. Biochemistry and function of hypusine formation on eukaryotic initiation factor 5A. Biol Signals. 1997; 6(3):105-109). […] To further investigate the mechanism of eIF5A-regulated translation of Nos2, studies were performed following overnight incubation of cells with mimosine (an inhibitor of DOHH) and GC7 (an inhibitor of DHS). […]
Immunoblot and nitrite and iNOS assays: Whole cell extracts were resolved by electrophoresis on a 4-20% SDS-polyacrylamide gel, followed by immunoblot using anti-eIF5A1, anti-eIF5A2, anti-iNOS, anti-GFP, or anti-actin primary antibodies and fluorophore-labeled secondary antibodies. Immunoblots were visualized using the Li-Cor® Odyssey® system (Li-Cor Biosciences) and quantitated by scanning fluorometry using Odyssey Imaging v. […] Nitrite was quantitated by measuring nitric oxide-derived nitrite from INS-1 cell culture medium using the Griess reagent (Promega) according to the manufacturer's recommendations. iNOS activity was measured using a commercially available kit (Cayman).

Row | Molecule | average fasting blood glucose ([1]; siRNA 1.6 mg/kg i.p. daily for 3 days, then multiple low-dose STZ, day 7) | immunohistochemical staining for iNOS in islets ([1]; siRNA i.p., STZ, end of the study) | islet number and insulin staining of pancreata (immunohistochemistry) ([1]; siRNA i.p., multiple low-dose STZ) | glucose tolerance in IPGTT ([1]; siRNA i.p., multiple low-dose STZ, compared to si-Control-injected mice) | reduction of β cell mass compared to non-STZ-treated controls ([1]; siRNA i.p., multiple low-dose STZ, morphometry of insulin-stained sections) | iNOS induction in islets by immunoblot ([1]; siRNA i.p., 24 h after the first STZ treatment) | STZ-induced glucose intolerance (GTT), osmotic pump GC7 ([1]; GC7 40 μg/kg/h continuous s.c. osmotic pump, started 3 days before STZ) | STZ-induced glucose intolerance (GTT), intraperitoneal GC7 ([1]; GC7 4 mg/kg/day i.p. bolus, started 3 days before STZ) | β cell mass (histomorphometry) ([1]; GC7-injected animals, STZ) | iNOS production in islets ([1]; GC7-treated pump animals, STZ) | TUNEL+ cells per islet ([1]; GC7 plus STZ, STZ alone 0.78) | serum IL-6 levels ([1]; concurrent treatment with STZ) | insulin secretion at 0 and 30 min during glucose challenge ([1]; pump-implanted animals, STZ) | nitrite release into the medium (iNOS)
1 | 5′-AACGGAAUGACUUCCAGCUGA-3′ (siSTABLE modification, further chemistry not given here) [si-eIF5A] | 101 mg/dL | undetectable | relatively preserved islet number and insulin granularity | improved glucose tolerance | 1.4 fold | attenuated |  |  |  |  |  |  |  | 
2 | NCCCCCCCN=C(N)N [GC7] |  |  |  |  |  |  | near-complete protection | near-complete protection | full preservation of mass | suppression of iNOS production | 0.42 | did not affect IL-6 levels | normal insulin secretory response | dose-dependent attenuation
